Source: patent US8822413B2, “Bifunctional hormone having alpha-MSH activity and natriuretic peptide activity and uses thereof” (Theratechnologies Inc., priority 2007, dated 2014)
pEC50: −log10 of the molar value. Bridge positions count the residues as written; N and C are the ends. Square brackets hold non-standard residues; d marks the D form. Peptide text beside a SMILES is read from it.

Legend:
ANP receptor = target: T1, ANP receptor (Sus scrofa, UniProt F1SFW3); assay: cGMP production in ANP receptor-expressing LLC-PK1 cells; format: cell-based; details: 30 min stimulation, 10^-6M through 10^-12M, NR = No response detected
T1 construct: ANP receptor-expressing LLC-PK1 cells; endogenous in cells; host or cells: LLC-PK1 cells
T1 sequence (F1SFW3 29-1057): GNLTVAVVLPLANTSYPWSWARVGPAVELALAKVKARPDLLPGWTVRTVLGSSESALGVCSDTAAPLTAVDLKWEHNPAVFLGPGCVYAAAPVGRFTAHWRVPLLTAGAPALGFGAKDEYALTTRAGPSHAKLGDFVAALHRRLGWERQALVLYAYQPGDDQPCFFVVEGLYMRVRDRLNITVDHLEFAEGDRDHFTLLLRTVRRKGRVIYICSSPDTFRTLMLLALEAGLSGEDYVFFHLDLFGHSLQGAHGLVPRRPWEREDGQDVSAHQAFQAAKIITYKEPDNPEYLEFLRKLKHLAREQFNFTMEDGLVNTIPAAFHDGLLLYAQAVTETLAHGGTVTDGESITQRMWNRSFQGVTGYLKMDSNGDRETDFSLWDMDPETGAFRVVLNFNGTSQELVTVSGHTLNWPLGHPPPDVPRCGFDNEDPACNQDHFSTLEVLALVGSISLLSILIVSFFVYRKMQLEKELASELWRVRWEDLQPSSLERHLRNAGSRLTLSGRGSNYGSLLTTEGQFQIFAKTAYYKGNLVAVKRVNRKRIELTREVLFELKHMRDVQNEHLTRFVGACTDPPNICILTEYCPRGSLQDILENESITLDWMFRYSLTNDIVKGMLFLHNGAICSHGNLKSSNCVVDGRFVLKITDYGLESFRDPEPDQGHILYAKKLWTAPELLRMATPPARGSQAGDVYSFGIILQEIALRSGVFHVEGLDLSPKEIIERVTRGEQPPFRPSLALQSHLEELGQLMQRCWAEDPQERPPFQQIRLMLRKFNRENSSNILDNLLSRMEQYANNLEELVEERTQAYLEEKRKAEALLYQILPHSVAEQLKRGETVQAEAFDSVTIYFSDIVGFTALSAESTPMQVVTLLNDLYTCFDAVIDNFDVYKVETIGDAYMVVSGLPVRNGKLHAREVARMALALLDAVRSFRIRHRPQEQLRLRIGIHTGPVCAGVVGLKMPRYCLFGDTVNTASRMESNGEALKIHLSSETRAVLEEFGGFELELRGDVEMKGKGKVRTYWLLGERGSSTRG
Procedure: The bifunctional hormone was tested on ANP receptor-expressing LLC-PK1 cells and on MCR1 receptor-expressing B16-F1 cells. Both cell types were cultured 24 hours before the stimulation, in 96-well plates, at a concentration of 1.0×10^5 cells/ml. Before stimulation, cells were starved 2 hours in DPBS only and incubated 10 min in assay buffer (DPBS containing 20 mM HEPES, 0.1% BSA and 500 μM IBMX). The dose response curve of the bifunctional hormone was done for 30 minutes with concentrations of 10^−6M through 10^−12M. Supernatant was collected and cAMP (B16-F1) or cGMP (LLC-PK1) was measured with a radiolabeled kit from GE Healthcare Company.

Sprague-Dawley (SD) rats [1] = assay: Effect on mean arterial pressure (MAP) of anesthetized rat, iv bolus and iv infusion; format: in vivo
Sprague-Dawley (SD) rats [2] = assay: Prophylactic treatment, acute kidney dysfunction following renal ischemia (renal artery clamping); format: in vivo, rat
Procedure: Plasma creatinine and urea were determined at different times. Data were analyzed by two way ANOVA using Bonferroni test for significance against the saline-treated group (n=3 per group; sal n=6).
Animals. Sprague-Dawley (SD) rats (male, weighing from 300 to 330 g) were obtained from Charles River Inc. Animals were maintained on standard laboratory chow under a 12:12 light:dark cycle.
Surgical preparation. The rats were anesthetized with Isoflurane 2.5% for the duration of the experiment. Animals were placed under radiant warmer to keep the temperature at 37.5° C. A blood sample (0.5 ml) was collected via tail vein artery before the renal artery clamping. Once the animal was anesthetized, placed in a supine position, a 1.5 cm flank incision was made on the right side of the abdominal wall. The right kidney was then exposed and the ureter, renal artery and renal vein were carefully dissected and ligated. The kidney was removed after cutting renal pedicle. A same incision was made on the left side of the abdominal wall. The left kidney is exposed and the renal vascular pedicle is carefully dissected. The renal vascular pedicle was then occluded by placing a vascular clip (Micro Serrefine™, Fine Science Tools) for a period of 30 or 45 minutes. This renal vascular pedicle clamping produced an acute renal artery occlusion (RAO). The kidney was inspected for ischemia as well as for good reperfusion after removing vascular clip for 2 minutes. The wound of abdominal wall was closed in two layers. The muscular layer was closed with a running 3-0 silk suture and the skin was closed with suture clips (Fine Science Tools). 21 hours after right nephrectomy and left renal artery clipping procedure, the rats were put in the metabolic cages for urine collection (in pre-weighed Tube 50 ml) for 3 hours. Urine volume was measured by weighing the tube containing urine. Then, the animals were anesthetized with Isoflurane 2.5%. Left kidney was removed and kept in formalin for future histology. […]

[3] = 15 μg/kg/h infused 1 h before and 1 h after renal artery clamping, vs saline group, each time point, FIG. 3

SMILES: CC[C@H](C)[C@@H]1NC(=O)[C@H](CCCNC(=N)N)NC(=O)[C@H](CC(=O)O)NC(=O)[C@H](CCSC)NC(=O)[C@H](CCCNC(=N)N)NC(=O)CNC(=O)CNC(=O)[C@H](Cc2ccccc2)NC(=O)[C@@H](NC(=O)[C@H](CCSC)NC(=O)[C@@H]2CCCN2C(=O)[C@H](CCCCN)NC(=O)CNC(=O)[C@H](Cc2c[nH]c3ccccc23)NC(=O)[C@H](CCCNC(=N)N)NC(=O)[C@@H](Cc2ccccc2)NC(=O)[C@H](Cc2c[nH]cn2)NC(C)=O)CSSC[C@@H](C(=O)N[C@@H](CC(N)=O)C(=O)N[C@@H](CO)C(=O)N[C@@H](Cc2ccccc2)C(=O)N[C@@H](CCCNC(=N)N)C(=O)N[C@@H](Cc2ccc(O)cc2)C(N)=O)NC(=O)CNC(=O)[C@H](CC(C)C)NC(=O)CNC(=O)[C@H](CO)NC(=O)[C@H](CCC(N)=O)NC(=O)[C@H](C)NC(=O)CNC1=O [SEQ ID NO: 33, Ac-H-f-R-W-G-K-P-M-[C-F-G-G-R-M-D-R-I-G-A-Q-S-G-L-G-C]-N-S-F-R-Y-NH2] (Ac-H[dF]RWGKPMCFGGRMDRIGAQSGLGCNSFRY-NH2; disulfide 9-25)
- pEC50 (ANP receptor): 7.16
- effect on MAP of continuous intravenous infusion (Sprague-Dawley (SD) rats [1]; 30 μg/kg/h iv infusion, MAP recorded over an hour, FIG. 1B): well tolerated
- bolus iv dose tolerated (MAP) (Sprague-Dawley (SD) rats [1]; anesthetized SD rat, incremental iv bolus doses, FIG. 1A): up to 20 μg/kg
- blood urea nitrogen (BUN) (Sprague-Dawley (SD) rats [2]; [3]): significantly reduced the elevation
- plasma creatinine (Sprague-Dawley (SD) rats [2]; [3]): significantly reduced the elevation
- diminishing kidney injury, compared with native ANP (Sprague-Dawley (SD) rats [2]; prophylactic use, 15 μg/kg/h): as effective as native ANP
